In patent US20160113895A1, “Novel Use of Adapalene in Treating Esophageal Cancer and Gastrointestinal Stromal Tumor” (Biodelight Biotech Inc., priority 2013, published 2016):
*1 amine or outer side, *2 acyl side, *3 side chain or, on linkers, in order; H or OH if unused. Where a SMILES comes first, the peptide text is derived from it. Bridges are numbered along the chain shown (N, C = ends). Roman numbers before positions name the chains, in order. [ ]: non-standard residue; d: D form. Actinocin(9to1) = Cc1c2oc3c(C)ccc(C(=O)[*:1])c3nc-2c(C(=O)[*:2])c(N)c1=O; NMeV = CN[C@H](C(=O)O)C(C)C; Sar = CNCC(=O)O

What was measured:
[1] = system: H460; assay: 2D cell proliferation assay (Alamar Blue), H460; format: cell-based, human
Description: (§1) Nsl-8 was subjected to 2D cell proliferation assays using four NSCLC cell lines (A549 (human adenocarcinomic alveolar basal epithelial cells with k-ras gene mutation), H1299 (human non-small cell lung carcinoma cell line with p53 mutation), H460 (human non-small cell lung carcinoma cell line with k-ras gene mutation), and HCC827 (human NSCLC cells with EGFR mutation of deletion from E746 to A750)) and the results were presented in Table 2. There were eight concentrations used for each drug for determining its IC50. […]. Actinomycin D was a chemotherapeutic drug simply used as a quality control for all the experiments.
(§2) In the 2D cell proliferation assay, cells were cultured in DMEM containing 10% FCS and Penicillin/Streptomycin. For the assays, cells were seeded in 150 μL medium on a 96-well cell culture plate and incubated at 37° C. overnight before the compounds were added. Compounds were prepared as predilution which was 16 fold concentrated to the final assay concentration. A day after cell seeding, 10 μL of prediluted compounds was added to the cells (1:16 dilution). Treatment of cells with 0.1% DMSO or 1% DMSO (for the two top concentrations of nsl-8) and 1.0E-05 M Staurosporine was served as high control (100% viability) and low control (0% viability), respectively. Measurement of the impact of compounds on cell viability was performed as follows: 5000 cells (A549 and HCC827) or 2500 cells (H1299 and H460) were seeded in the inner wells of 96-well-plates in 150 μL complete medium. Next day, compounds were added to the medium to reach the final concentration and then incubated at 37° C. in 5% or 10% CO2 depending on the medium for 72 h. Subsequently 10 μL Alamar Blue reagent was added and fluorescence at 590 nm was measured after 5 h incubation at 37° C. in 5% CO2 using a fluorometer.
(§3) Raw data were converted into percent cell viability relative to high control (solvent 0.1% DMSO or 1% DMSO for the two top concentrations of drug nsl-8) and low control (1.0E-05 M Staurosporine), which were set to 100% and 0%, respectively.

[2] = system: A549; assay: 2D cell proliferation assay (Alamar Blue), A549; format: cell-based, human; conditions: A549, 72 h
Description: as §1, §2, §3

[3] = system: A549 implanted tumors; assay: Subcutaneous A549 xenograft model, groups 2a-2c, o.p.; conditions: for Tumor inhibition rate (%): A549, o.p. once daily, NSL-8 70 mpk, Tarceva 20 mpk
Description: The antitumor efficacy of the drug lead nsl-8 searched was studied using the subcutaneous xenografted A549 and HCC827 lung cancer tumor models in vivo. […] Mice were maintained in individual ventilated cages (IVC, max. 4 mice/cage) at constant temperature and humidity. Animal weights were determined three times (Monday, Wednesday and Friday) for groups 1a and 1b or two times (Monday and Thursday) for groups 2a-2c and 3a-3c animals. Animal behaviour was monitored daily.
On day 0, either 2×10^6 A549 or 2×10^6 HCC827 tumor cells in 100 μL PBS were implanted into the subcutaneous space of the left flank of all corresponding BALB/c nude and SCID mice, respectively. In the following, tumor sizes were determined by caliper measurement. Tumor sizes were calculated according to the formula W^2×Lg/2 (Lg=length and W=the perpendicular width of the tumor, L>W). On day 48 or 30, after mean tumor volumes had reached approx. 100 mm^3, the corresponding tumor-bearing animals were randomized into 2 groups of 8 (A549 model: groups 1a and 1b) or 10 animals (A549 model: groups 2a and 2b) according to tumor sizes. On day 24 or 28, after mean tumor volumes had reached approx. 100 mm^3, the corresponding tumor-bearing animals were randomized into 2 groups of 10 animals (HCC827 model: groups 3a and 3b) according to tumor sizes. […] The percentage of tumor growth inhibition (TGI) was calculated using the following formula: […]
where T and C represent the mean tumor volume of the treatment and the control group, respectively.
The solution was aliquoted into several 15 ml sterile centrifuge tubes in 650 μl quantity per tube and then stored frozen at −80° C. until use. […] Animals of group 1b received 40 mg/kg nsl-8 dosage solution once daily through i.p. route on days 48-52 and 62-66, while those of groups 2b and 3b received 70 mg/kg nsl-8 dosage solution once daily through o.p. route on days 1-14 (group 2b) and days 1-14 (group 3b), respectively (Table 4).
Groups 1a and 1b (A549 model) were terminated on day 69, while groups 2a-2c (A549 model) and 3a-3c (HCC827 model) were terminated on day 15. At necropsy, animals were killed by cervical dislocation. Primary tumor weights and volumes were determined. The tumor volume and weight were analysed using descriptive data analysis (Mean, SEM, Median). Statistical analysis of efficacy data was performed using the unpaired t-test. All the data analyses were performed using GraphPad Prism 5 from GraphPad Software, Inc., San Diego, USA.
The serum level of blood urea nitrogen (BUN) was measured for assessing the renal function while those of alanine aminotransferase (ALT) and aspartate aminotransferase (AST) were measured using Ektachem DT system (Johnson & Johnson Clinical Diagnostics) for assessing the liver function. The EDTA treated anticoagulated blood samples were also collected for making a complete peripheral blood count by using a Hematology Analyzer (Sysmex, XT-1800i).
For this study, 0.161 ml nsl-8 stock solution made in DMSO was mixed with 1.339 ml 0.9% w/v saline so that the volume of a final dosage solution prepared to feed an animal was 1.5 ml and containing 10% DMSO. Therefore, both administration routes and vehicles used in treating groups 2a-2b and 3a-3b animals were quite different from that used in treating groups 1a-1b animals.

[4] = system: H1299; assay: 2D cell proliferation assay (Alamar Blue), H1299; format: cell-based, human
Description: as §1, §2, §3

[5] = system: H460; assay: 3D cell proliferation assay (soft agar), H460; format: cell-based, human; conditions: 3D soft agar
Description: (§4) Drug nsl-8 was further subjected to a 3D cell proliferation assay for assessing its potential in inhibiting the growth of NSCLC tumors. The same four NSCLC cell lines used in 2D proliferation assays were grown in soft agar and the drug was added after the agar has solidified. The drug added cells were then incubated several days until colonies have formed in the solvent control. Subsequently, Alamar Blue which was a cell viability reagent was added and the corresponding fluorescence released was measured as an indirect quantification of colony growth in soft agar.
(§5) For each cell line, some 96 well culture plates were prepared. 100 μL of the soft agar bottom layer (0.6% final concentration in complete medium) was poured and left to solidify. 50 μL of the soft agar top layer (0.4% final concentration) containing the corresponding cells and cell number were then added on top, solidified and such 96 well plates were incubated overnight at 37° C. in 10% CO2. Next day, drugs were added at indicated final concentrations into the inner wells of the plate. Subsequently, the assays were incubated in cell culture incubators for the indicated period of time. Finally, the assays were developed using Alamar Blue and upon 3-5 h of incubation at 37 ° C. fluorescence intensity was determined (excitation: 560 nm, emission: 590 nm). […]

[6] = system: HCC827; assay: 2D cell proliferation assay (Alamar Blue), HCC827; format: cell-based, human; conditions: HCC827, 72 h
Description: There were eight concentrations used for each drug for determining its IC50. […] Actinomycin D was a chemotherapeutic drug simply used as a quality control for all the experiments.
as §2, with “Compounds were prepared as predilution which was 16 fold concentrated to the final assay concentration.” left out, “h.” for “h. Subsequently 10 μL Alamar Blue reagent was added and fluorescence at 590 nm was measured after 5 h incubation at 37° C. in 5% CO2 using a fluorometer.”
as §3

[7] = system: H1299; assay: 3D cell proliferation assay (soft agar), H1299; format: cell-based, human; conditions: 3D soft agar
Description: as §4, §5

[8] = system: A549; assay: 3D cell proliferation assay (soft agar), A549; format: cell-based, human; conditions: 3D soft agar
Description: as §4, §5

[9] = system: HCC827; assay: 3D cell proliferation assay (soft agar), HCC827; format: cell-based, human; conditions: 3D soft agar
Description: as §4, §5

Row | Structure (SMILES) | IC50 ([1]; Homo sapiens, NCI-H460, 72 h) [nM] | IC50 ([2]; Homo sapiens) [nM] | cell counts of white blood cell, red blood cell, or platelet versus vehicle ([3]; A549 model, peripheral blood at end-point, nsl-8 70 mg/kg, Tarceva 20 mg/kg o.p.) | serum levels of BUN, ALT, and AST among treatment groups ([3]; A549 model, upon completion of the experiments) | Tumor inhibition rate (%) ([3]; Day 0) | Tumor inhibition rate (%) ([3]; Day 3) | Tumor inhibition rate (%) ([3]; Day 7) | Tumor inhibition rate (%) ([3]; Day 10) | Tumor inhibition rate (%) ([3]; Day 14) | inhibition in growth of A549 implanted tumors (in words) ([3]; group 2c, 20 mg/kg o.p. daily) | IC50 ([4]; Homo sapiens, NCI-H1299, 72 h) [nM] | IC50 [5] [nM] | IC50 [6] [nM] | IC50 [7] [nM] | IC50 ([1]; 2D, H460, 72 h, read-out: IC50) [nM] | IC50 ([2]; 2D, read-out: IC50) [nM] | IC50 [8] [nM] | IC50 [9] [nM] | IC50 ([4]; 2D, H1299, 72 h, read-out: IC50) [nM]
1 | C#Cc1cccc(Nc2ncnc3cc(OCCOC)c(OCCOC)cc23)c1 [Erlotinib] | > 10000 | > 10000 | no significant difference | no significant difference | 0 | −16.7 | −19.0 | −22.0 | −29.6 | no inhibition | > 10000 | – | – | – | – | – | – | – | –
2 | Cc1c2oc3c(C)ccc(C(=O)N[C@@H]4C(=O)N[C@H](C(C)C)C(=O)N5CCC[C@H]5C(=O)N(C)CC(=O)N(C)[C@@H](C(C)C)C(=O)O[C@@H]4C)c3nc-2c(C(=O)N[C@@H]2C(=O)N[C@H](C(C)C)C(=O)N3CCC[C@H]3C(=O)N(C)CC(=O)N(C)[C@@H](C(C)C)C(=O)O[C@@H]2C)c(N)c1=O [Actinomycin D] (I: T[dV]P[Sar][NMeV] / II: T[dV]P[Sar][NMeV]; ester I:1-I:C, II:1-II:C; linker I:N-II:N via Actinocin(9to1)) | – | – | – | – | – | – | – | – | – | – | – | 0.67 | 12 | 0.82 | 0.42 | 0.92 | 0.84 | 0.24 | 0.31
